According to ChEMBL document CHEMBL1681651, “A broad spectrum anticancer nucleoside with selective toxicity against human colon cells in vitro” (2011):

Tests used:
Type in all cases: functional
SR [1] = assay: Growth inhibition of human SR cells assessed as cell growth at 0.1 uM after 48 hrs by SRB assay; details: read-out: Activity
HL-60(TB) [2] = assay: Growth inhibition of human HL-60(TB) cells assessed as cell growth at 0.1 uM after 48 hrs by SRB assay; details: HL-60, 48 h, read-out: Activity
SW-620 = assay: Growth inhibition of human SW620 cells assessed as cell growth at 100 uM after 48 hrs by SRB assay; details: SW-620, 48 h, read-out: Activity
SR [3] = assay: Growth inhibition of human SR cells after 48 hrs by SRB assay
PC-3 [4] = assay: Growth inhibition of human PC3 cells assessed as cell growth at 100 uM after 48 hrs by SRB assay; details: PC-3, 48 h, read-out: Activity
K562 [5] = assay: Growth inhibition of human K562 cells assessed as cell growth at 100 uM after 48 hrs by SRB assay; details: K562, 48 h, read-out: Activity
HL-60(TB) [6] = assay: Growth inhibition of human HL-60(TB) cells after 48 hrs by […] growth inhibition assay; details: HL-60, 48 h
MOLT-4 [7] = assay: Growth inhibition of human MOLT4 cells assessed as cell growth at 1 uM after 48 hrs by SRB assay; details: MOLT-4, 48 h, read-out: Activity
K562 [8] = assay: Growth inhibition of human K562 cells assessed as cell growth at 1 uM after 48 hrs by SRB assay; details: K562, 48 h, read-out: Activity
[9] = Growth inhibition of human Hs 578T cells assessed as cell growth at 100 uM after 48 hrs by SRB assay; details: read-out: Activity
NCI/ADR-RES = assay: Growth inhibition of human NCI/ADR-RES cells assessed as cell growth at 1 mM after 48 hrs by SRB assay; details: read-out: Activity
[10] = Growth inhibition of human Hs 578T cells assessed as cell growth at 1 uM after 48 hrs by SRB assay; details: read-out: Activity
SK-MEL-28 = assay: Growth inhibition of human SK-MEL-28 cells assessed as cell growth at 1 uM after 48 hrs by SRB assay; details: SK-MEL-28, 48 h, read-out: Activity
MOLT-4 [11] = assay: Growth inhibition of human MOLT4 cells after 48 hrs by […] growth inhibition assay; details: MOLT-4, 48 h
SR [12] = assay: Growth inhibition of human SR cells assessed as cell growth at 100 uM after 48 hrs by SRB assay; details: read-out: Activity
PC-3 [13] = assay: Growth inhibition of human PC3 cells assessed as cell growth at 1 uM after 48 hrs by SRB assay; details: PC-3, 48 h, read-out: Activity
MOLT-4 [14] = assay: Growth inhibition of human MOLT4 cells assessed as cell growth at 0.1 uM after 48 hrs by SRB assay; details: MOLT-4, 48 h, read-out: Activity
PC-3 [15] = assay: Growth inhibition of human PC3 cells assessed as cell growth at 0.1 uM after 48 hrs by SRB assay; details: PC-3, 48 h, read-out: Activity
MDA-MB-468 [16] = assay: Growth inhibition of human MDA-MB-468 cells assessed as cell growth at 100 uM after 48 hrs by SRB assay; details: MDA-MB-468, 48 h, read-out: Activity
MDA-MB-468 [17] = assay: Growth inhibition of human MDA-MB-468 cells assessed as cell growth at 0.1 uM after 48 hrs by SRB assay; details: MDA-MB-468, 48 h, read-out: Activity
MDA-MB-468 [18] = assay: Growth inhibition of human MDA-MB-468 cells assessed as cell growth at 1 mM after 48 hrs by SRB assay; details: MDA-MB-468, 48 h, read-out: Activity
MDA-MB-468 [19] = assay: Growth inhibition of human MDA-MB-468 cells assessed as cell growth at 1 uM after 48 hrs by SRB assay; details: MDA-MB-468, 48 h, read-out: Activity
[20] = read-out: LC50 (the source's name)
[21] = read-out: pLC50 (the source's name) (converted)

Row | SMILES | growth at 0.1 µM (SR [1]) | growth at 0.1 µM (HL-60(TB) [2]) | growth at 100 µM (SW-620) | GI50 (SR [3]; read-out: GI50) | CC50 (SR [3]; [20]) | TGI (SR [3]; read-out: TGI) | GI50 (SR [3]; read-out: pGI50 (converted)) | CC50 (SR [3]; [21]) | TGI (SR [3]; read-out: pTGI (converted)) | growth at 100 µM (PC-3 [4]) | growth at 100 µM (K562 [5]) | GI50 (HL-60(TB) [6]; read-out: GI50) | CC50 (HL-60(TB) [6]; [20]) | GI50 (HL-60(TB) [6]; read-out: pGI50 (converted)) | CC50 (HL-60(TB) [6]; [21]) | growth at 1 µM (MOLT-4 [7]) | growth at 1 µM (K562 [8]) | growth at 100 µM [9] | growth at 1000 µM (NCI/ADR-RES) | growth at 1 µM [10] | other results
1 | CCOC(=O)C[C@H]1[C@@H](O[Si](C)(C)C(C)(C)C)[C@H](n2cnc3c(NC(=O)Nc4ccccc4)ncnc32)O[C@@H]1CNC(=O)NC | 82% | 85% | 28% | 2.23 µM | > 100 µM | 7.07 µM | 2.24 µM | > 100 µM | 7.08 µM | -47% | 19% | 3.01 µM | > 100 µM | 3.02 µM | > 100 µM | 84% | 93% | 18% | 59% | 95% | growth at 1 µM (SK-MEL-28): 106%; GI50 (MOLT-4 [11]; read-out: GI50): 2.39 µM; LC50 (MOLT-4 [11]; read-out: LC50): > 100 µM; TGI (MOLT-4 [11]; read-out: TGI): 23.3 µM; GI50 (MOLT-4 [11]; read-out: pGI50 (converted)): 2.4 µM; LC50 (MOLT-4 [11]; read-out: pLC50 (converted)): > 100 µM; TGI (MOLT-4 [11]; read-out: pTGI (converted)): 23.4 µM; growth at 100 µM (SR [12]): -15%; growth at 1 µM (PC-3 [13]): 126%; growth at 0.1 µM (MOLT-4 [14]): 93%; growth at 0.1 µM (PC-3 [15]): 121%
2 | CNC(=O)NC[C@H]1O[C@@H](n2cnc3c(NC(=O)Nc4ccccc4)ncnc32)[C@H](O[Si](C)(C)C(C)(C)C)[C@@H]1CC(=O)N(C)OC | 85% | 95% | 65% | 1.27 µM | 9.43 µM | 3.46 µM | 1.26 µM | 9.33 µM | 3.47 µM |  | 17% | 1.81 µM | > 100 µM | 1.82 µM | 16.2 µM | 90% | 95% | 40% | 55% | 98% | TGI (HL-60(TB) [6]; read-out: TGI): 4.34 µM; TGI (HL-60(TB) [6]; read-out: pTGI (converted)): 4.37 µM; growth at 1 µM (SK-MEL-28): 106%; GI50 (MOLT-4 [11]; read-out: GI50): 2.13 µM; LC50 (MOLT-4 [11]; read-out: LC50): > 100 µM; TGI (MOLT-4 [11]; read-out: TGI): 9.36 µM; GI50 (MOLT-4 [11]; read-out: pGI50 (converted)): 2.24 µM; LC50 (MOLT-4 [11]; read-out: pLC50 (converted)): > 100 µM; TGI (MOLT-4 [11]; read-out: pTGI (converted)): 9.33 µM; growth at 100 µM (SR [12]): -53%; growth at 0.1 µM (MOLT-4 [14]): 96%
3 | CNC(=O)NC[C@H]1O[C@@H](n2cnc3c(NC(=O)Nc4ccccc4)ncnc32)[C@H](O[Si](C)(C)C(C)(C)C)[C@@H]1O[Si](C)(C)C(C)(C)C |  |  |  |  |  |  |  |  |  | 6% |  |  |  |  |  |  |  |  |  |  | growth at 100 µM (MDA-MB-468 [16]): 6%; growth at 0.1 µM (MDA-MB-468 [17]): 101%; growth at 1000 µM (MDA-MB-468 [18]): -35%; growth at 1 µM (PC-3 [13]): 91%; growth at 0.1 µM (PC-3 [15]): 93%; growth at 1 µM (MDA-MB-468 [19]): 104%
